Assay: Pharmacokinetics in CD-1 mice
Type: in vivo, mouse
Settings: subcutaneous injection, same dose, CD-1 mice

## CC[C@H](C)[C@H](NC(=O)[C@H](Cc1ccccc1)NC(=O)[C@H](CCC(=O)O)NC(=O)[C@H](CCCCNC(=O)COCCOCCNC(=O)COCCOCCNC(=O)CC[C@H](NC(=O)CCCCCCCCCCCCCCCCC(=O)O)C(=O)O)NC(=O)[C@H](C)NC(=O)[C@H](C)NC(=O)[C@H](CCC(N)=O)NC(=O)CNC(=O)[C@H](CCC(=O)O)NC(=O)[C@H](CC(C)C)NC(=O)[C@H](Cc1ccc(O)cc1)NC(=O)[C@H](CO)NC(=O)[C@H](CO)NC(=O)[C@@H](NC(=O)[C@H](CC(=O)O)NC(=O)[C@H](CO)NC(=O)[C@@H](NC(=O)[C@H](Cc1ccccc1)NC(=O)[C@@H](NC(=O)CNC(=O)[C@H](CCC(=O)O)NC(=O)C(C)(C)NC(=O)[C@@H](N)Cc1cnc[nH]1)[C@@H](C)O)[C@@H](C)O)C(C)C)C(=O)N[C@@H](C)C(=O)N[C@@H](Cc1c[nH]c2ccccc12)C(=O)N[C@@H](CC(C)C)C(=O)N[C@H](C(=O)N[C@@H](CCCNC(=N)N)C(=O)NCC(=O)N[C@@H](CCCNC(=N)N)C(=O)NCC(=O)O)C(C)C [Semaglutide, reference compound]
  Plasma half-life relative to SM-102: comparable
